Measured values as given in patent EP0406111A1, “Substituted arylamines and heteroarylamines, process for their preparation and pharmaceutical composition containing them” (SOCIETE DE CONSEILS DE […] D'APPLICATIONS SCIENTIFIQUES …, priority 1989, dated 1991).
Like-named read-outs stand apart in the source and are kept apart here.

Legend:
[1] = target: T1, complexe de recapture de la dopamine (Rattus norvegicus, UniProt P23977); test: biochemical; assay type: binding; details: for Sélectivité IC50[^3H]TCP / IC50[^3H]BTCP: ratio of IC50 at the PCP receptor to IC50 at the dopamine reuptake complex
T1 construct: expériences de compétition sur les membranes de striatum préparées comme ci-dessus; from tissue; host or cells: rat striatal membranes
T1 sequence (P23977 whole entry, one chain of several): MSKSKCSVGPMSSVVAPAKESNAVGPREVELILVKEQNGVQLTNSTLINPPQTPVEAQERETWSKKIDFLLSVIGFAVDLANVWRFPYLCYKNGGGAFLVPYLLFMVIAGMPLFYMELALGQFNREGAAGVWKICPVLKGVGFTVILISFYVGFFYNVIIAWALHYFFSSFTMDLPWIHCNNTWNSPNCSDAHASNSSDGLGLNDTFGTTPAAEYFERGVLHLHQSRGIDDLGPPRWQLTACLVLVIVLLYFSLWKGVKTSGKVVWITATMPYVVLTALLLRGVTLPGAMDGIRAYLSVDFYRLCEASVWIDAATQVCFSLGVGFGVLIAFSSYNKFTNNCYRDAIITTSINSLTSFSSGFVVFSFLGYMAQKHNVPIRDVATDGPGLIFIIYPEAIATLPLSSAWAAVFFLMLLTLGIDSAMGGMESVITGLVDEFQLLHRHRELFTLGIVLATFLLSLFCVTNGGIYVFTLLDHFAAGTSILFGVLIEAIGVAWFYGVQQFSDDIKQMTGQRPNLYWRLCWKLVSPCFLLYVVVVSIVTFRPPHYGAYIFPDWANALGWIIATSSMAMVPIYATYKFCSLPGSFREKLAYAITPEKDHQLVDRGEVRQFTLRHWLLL
Procedure: Exemple 35 : Affinité des composés pour les sites de liaison de la (³H)BTCP sur les membranes striatales de cerveaux de rats.
Les striata de cerveaux de rats rapidement disséqués dans la glace sont homogénéisés avec un ultra turax pendant 30 s (position 6) dans 50 volumes d'une solution de sucrose 0,32 M tamponnée par du Tris-HCl 10 mM à pH = 7,4. L'homogénat est centrifugé à 4°C à 1000g pendant 10 mln, puis le surnageant obtenu est centrifugé à 40000 g à 4°C pendant 30 min et les culots obtenus sont repris dans 1 ml de tampon par striatum.
L'affinité des composés pour le complexe de recapture de la dopamine est déterminée par des expériences de compétition sur les membranes de striatum préparées comme ci-dessus. Le ligand radioactif utilisé est la (³H)BTCP (Service des Molécules Marquées du CEA, Saclay France) à 55Ci/mmol.
Après 90 min à 4°C, 3 aliquots de 250 µl sont filtrés sous vide sur des filtres de fibre de verre GF/B (Whatman). La liaison non spécifique est obtenue dans des expériences parallè-les réalisées en présence de 10 µM de BTCP non marquée. Elle est soustraite de la liaison totale pour obtenir la liaison spécifique.

[2] = target: T2, capture de (³H)dopamine par les synaptosomes striataux de rat (Rattus norvegicus, UniProt P23977); test: biochemical
T2 construct: Les culots résultants P2 contenant les synaptosomes bruts sont ensuite utilisés sans purification supplémentaire; from tissue; host or cells: Wistar rat striatum, crude synaptosomes (P2 pellet)
T2 sequence (P23977 whole entry): as the sequence (P23977 whole entry, one chain of several) above
Procedure: Ce test est pratiqué selon la méthode utilisée par Vignon et Lazdunski en opérant de la façon suivante. Des rats Wistar pesant 200-250g sont tués par dislocation cervicale. Leurs cerveaux sont rapidement prélevés et les striata sont dissé-qués sur la glace. Les striata sont ensuite homogéné-isés (10 allers-retours) avec un homogénéisant Potter dans 50 volumes de tampon Tris HCl 10 mM à pH 7,4 contenant 0,32 M de sucrose. L'homogénat est ensuite centrifugé à 1000g pendant 10min à 4°C, puis le surnageant obtenu est recentrifugé à 10000g pendant 20min à 4°C. Les culots résultants P2 contenant les synaptosomes bruts sont ensuite utilisés sans purification supplémentaire.
On ajoute alors de la dopamine tritiée ((³H)DA, Amersham) à une concentration finale de 5 nM pendant 5 min à 30°C, et on interrompt sa capture par filtration de 150 µl du milieu d'incubation sur des filtres en fibres de verre GF/B (Whatman). La radioactivité retenue par les filtres est mesurée dans un compteur à scintillation liquide (LKB)avec 3 ml d'ACS (Amersham) comme scintillant. La capture non spécifique est mesurée à 4°C dans des incubations parallèles : elle est ensuite sous-traite de la capture totale mesurée à 30°C.
Les composés à tester sont solubilisés au départ dans de l'eau à une concentration de 1mM et les autres concentrations sont obtenues par des dilutions successives de cette solution mère dans l'eau.

[3] = target: récepteur de la PCP; test: Competition binding at the (3H)TCP sites on rat brain homogenates (Example 36); details: 1 nM (3H)TCP, 30 min at 25°C
Source text: Exemple 36 : Affinité des composés pour les sites de liaison de la (³H)TCP sur les homogénats de cerveaux de rats.
Dans cet essai on mesure les affinités des composés pour le récepteur de la PCP par des expériences de compétition sur des homogénats de cerveaux de rats. Le ligand radioactif utilisé est la (³H)TCP à une activité spécifique de 62 Ci/mmol (Service des Molécules Marquées, CEA Saclay France).
Les cerveaux de rats (sans le cervelet et le tronc cérébral) sont homogénéisés à l'ultra turax dans 20 volumes de tampon Hepes-Tris 50 mM, pH 7,7. Après centrifugation pendant 30 min à 15000 g le culot est repris dans le même volume de tampon et recentrifugé dans les mêmes conditions. Le culot final est repris dans du tampon Hepes-Tris 50 mM, pH 7,7 de façon à obtenir une concentration en protéine de 6 à 8 mg/ml.
Les expériences de compétition sont réalisées en incubant pendant 30 min les membranes (concentration finale en protéine : 0,6 à 0,8 mg/ml) en milieu tampon 5 mM Hepes-Tris, pH 7,7 à 25°C, en présence d'une concentration fixe de ligand tritié (1 nM)et de concentrations croissantes de composés à tester. Trois échantillons de 600 µL sont ensuite filtrés sur filtres de fibres de verre GF/B prétraités par du PEI (polyéthylénimine) à 0,1%. Les filtres sont rincés avec 3x5ml de tampon Tris-HCl 10 mM, NaCl 100 mM et la radioactivité retenue est mesurée dans un compteur à scintillation liquide. La liaison non spécifique est obtenue en présence de TCP […].

[4] = system: fixation de la (³H)BTCP dans le striatum de souris; test: Inhibition of in vivo (3H)BTCP binding in mouse striatum (Example 40); details: mice, compound s.c. 60 min before i.v. (3H)BTCP, sacrifice 30 min later
Procedure: Exemple 40 : Etude de l'inhibition de la fixation "in vivo" de (³H)BTCP chez la souris.
Pour cette étude, on utilise des souris Swiss mâles pesant 20 à 25g. Les souris sont réparties par groupes et alimentées avec de la nourriture standard de laboratoire et de l'eau à volonté, en réalisant des cycles de lumière artificielle de 12h consécutives à partir de 7h du matin. Les expériences sont effectuées entre 10h et 18h. Les mesures de la fixation "in vivo" de la (³H)BTCP sont effectuées comme il a été décrit par Maurice et al, 1989, de la façon suivante.
On injecte aux souris par voie sous-cutanée le composé à tester dans 100µl de solution physiologique pour les composés n^o 4 et n^o 16 et dans 100µl d'un mélange 1:1 en volume de solution physiologique et de DMSO pour le composé n^o 26. 60 min après cette injection on leur injecte dans une veine de la queue (³H)BTCP à une dose de 5µCi dans 100µl d'un mélange de solution physiologique et d'éthanol à 5%. 30min après cette injection, on sacrifie les souris. Les striata de cerveaux sont rapidement disséqués et homogénéisés avec un ultra turrax (IKA Verk) réglage maximum pendant 20s dans 80 volumes d'un tampon Na₂HPO₄, HCl 50mM, pH=7,4 à 4°C. Deux aliquots de […] sont filtrées sous pression réduite sur des filtres GF/B (Whatman) prétraités par de la polyéthylène imine à 0,5% (Aldrich). On rince ensuite les filtres deux fois avec 5ml d'un tampon NaCl 50mM, tris-HCl 10mM, pH=7,4 à 4°C. La radioactivité fixée qui reste sur les filtres, et la radioactivité totale, obtenue à partir des deux aliquots de 200µl d'homogénats sont mesurées dans des flacons de 6ml contenant 3,5ml de ACS (Amersham) avec un spectrophotomètre à scintillation liquide Excel 1410 (LKB). La fixation non spécifique est définie comme la radioactivité présente dans chaque région après prétraitement des animaux avec de la BTCP (40mg/kg dans 100µl de solution saline), injectée par voie sous-cutanée, 60min avant l'injection de (³H)BTCP. Les résultats sont exprimés sous la forme des rapports radioactivité fixée / radioactivité libre (B/F) dans lesquels le taux de (³H)BTCP libre est estimé en soustrayant la radioactivité fixée de la radioactivité totale.

[5] = system: souris Swiss; test: Locomotor activity of mice in the Boissier-Simon actimeter (Example 38); assay type: in vivo; details: 30 min after administration, beams crossed from 20th to 35th minute
Procedure: Exemple 38 : Mesure de l'activité locomotrice.
L'activité locomotrice de souris Swiss (mâles CD1, 25-30 g, Charles River, St Aubin lès Elbeuf, France) est mesurée dans l'actimètre Boissier-Simon (Apelex, Bagneux, France).
30 minutes après l'administration des composés à tester (10 mg/kg, i.p.), les souris sont introduites dans des cages individuelles en Plexiglass (L = 26 cm, l = 20 cm, h = 10 cm), équipées de deux cellules photoélectriques situées à 1 cm au-dessus du plancher. Chaque cellule est reliée à un compteur électromécanique. "L'activité locomotrice" correspond au nombre de rayons traversés, de la 20ème à la 35ème minute après introduction dans les cages d'actimétrie.

[6] = rat striatal membranes, 0,2 nM (3H)BTCP, 90 min at 4°C, read-out: [3H] BTCP IC50
[7] = rat striatal synaptosomes, 5 nM (3H)DA, 5 min at 30°C, read-out: [3H] DA IC50

| Structure (SMILES) | IC50 [1, 6] | IC50 [2, 7] | further results |
| --- | --- | --- | --- |
| ICC1CCCN(C2(c3cc4ccccc4s3)CCCCC2)C1 (stereo not drawn) [composé n^o 11] | 26 nM | 54.3 nM | Sélectivité IC50[^3H]TCP / IC50[^3H]BTCP [1]: >>3846; IC50 [3]: > 100 µM |
| c1ccc2cc(C3(N4CCCCC4)CCCCC3)ccc2c1 [composé n^o 16, (naphtyl-2)-1 (pipéridi-no-1)-1 cyclohexane] | 14.8 nM | 36.3 nM | ID₅₀ (mg/kg) [4]: 2,66 mg/kg; Activité locomotrice Variation (%) par rapport aux témoins (100%) pour la dose 10 mg/kg,i.p. [5]: +269±57% |
| C[C@H]1CCCC[C@@]1(c1cc2ccccc2s1)N1CCCCC1 (relative stereo) [composé n^o 24, (benzo(b)thiophényl--2)-1 c-méthyl-2-r-(pipéridino-1)-1 cyclohexane] | 14.7 nM | 30.6 nM | Activité locomotrice Variation (%) par rapport aux témoins (100%) pour la dose 10 mg/kg,i.p. [5]: +101±23% |
| CC1CC(C)CN([C@]2(c3cc4ccccc4s3)CC[C@H](C)CC2)C1 (relative stereo) [composé n^o 13, (benzo(b)thiophényl-2)-1-r-((diméthyl-3,5 pipéridino)-1)-1 c-méthyl-4 cyclohexane] | 635 nM | 425 nM |  |
| CC1CCCCC1(c1cc2ccccc2s1)N1CCCCC1 (stereo not drawn) [composé n^o 25, (benzo(b)thiophényl-2)-1 t-méthyl-2--r-(pipéridino-1)-1 cyclohexane] | 1480 nM | 1280 nM |  |
| CCN(CC)C1(c2cc3ccccc3s2)CCCCC1 [composé n^o8, (benzo(b)thiophényl-2)-1 (diéthylamino-1)-1 cyclohexane] |  |  | IC50 [1]: 16.7 nM; IC50 [2]: 20.1 nM; Activité locomotrice Variation (%) par rapport aux témoins (100%) pour la dose 10 mg/kg,i.p. [5]: +52±21% |
| CC(=O)OCC1CCCN(C2(c3cc4ccccc4s3)CCCCC2)C1 (stereo not drawn) [composé n^o 15, acétate de (benzo(b)-thiophényl-2)-1 ((hydroxyméthyl-3 pipéridino)-1)-1 cyclohexane] | 24 nM | 44.5 nM |  |
| OCC1CCCN(C2(c3cc4ccccc4s3)CCCCC2)C1 (stereo not drawn) [composé n^o 9, (benzo(b)thiophényl-2)-1 ((hydroxyméthyl-3 pipéridino)-1)-1 cyclohexane] | 18.1 nM | 20.9 nM | Activité locomotrice Variation (%) par rapport aux témoins (100%) pour la dose 10 mg/kg,i.p. [5]: +416±36% |
| c1ccc2sc(C3(N4CCC5(CC4)OCCO5)CCCCC3)cc2c1 [composé n^o 5, (benzo(b)thiophényl-2)-1 ((éthylènekétal-4 pipéridino)-1)-1 cyclohexane] | 35.5 nM | 65.7 nM | Sélectivité IC50[^3H]TCP / IC50[^3H]BTCP [1]: >>2816; IC50 [3]: > 100 µM |
| CC1CC(C)CN(C2(c3cc4ccccc4o3)CCCC(C)C2)C1 (stereo not drawn) [composé n^o 14, (benzo(b)furannyl-2)-1-r-((diméthyl-3,5 pipéridino)-1)-1 t-méthyl-3 cyclohexane] | 2210 nM | 2740 nM |  |
| CC1CCN(C2(c3cc4ccccc4s3)CCCCC2)CC1 [composé n^o 7, (benzo(b)thiophényl-2)-1 ((méthyl-4 pipéridino)-1)-1 cyclohexane] | 30.8 nM | 11.5 nM |  |
| C[C@H]1CCC[C@@](c2cc3ccccc3s2)(N2CCCCC2)C1 (relative stereo) [composé n^o 22, (benzo(b)thiophényl-2)-1 c-méthyl-3-r-(piperidino-1)-1 cyclohexane] | 369 nM | 691 nM |  |
| ClCC1CCCN(C2(c3cc4ccccc4s3)CCCCC2)C1 (stereo not drawn) [composé n^o 12, (benzo(b)thiophényl-2)-1 ((chlorométhyl-3 pipéridino)-1)-1 cyclohexane] | 102 nM | 107 nM |  |
| CC1CCCC(c2cc3ccccc3s2)(N2CCCCC2)C1 (stereo not drawn) [composé n^o 23, (benzo(b)thiophényl-2)-1 t-méthyl-3-r-(pipéridino-1)-1 cyclohexane] | 590 nM | 606 nM |  |
| c1ccc2c(C3(N4CCCCC4)CCCCC3)cccc2c1 [composé n^o 17, (naphtyl-1)-1 (pipéridino-1)-1 cyclohexane] | 2560 nM | 3250 nM |  |
